{"source": "patent US6765015B2", "about": "“Halogenated paclitaxel derivatives” (Xechem International, Inc., priority 1995, dated 2004)", "origin": "cited, not measured here", "test_system": "leukemic tumors", "details": "in vivo"}
{"smiles": "C/C=C(\\C)C(=O)N[C@@H](c1ccccc1)[C@@H](O)C(=O)O[C@H]1C[C@@]2(O)[C@@H](OC(=O)c3ccccc3)[C@@H]3[C@]4(OC(C)=O)CO[C@@H]4C[C@H](O)[C@@]3(C)C(=O)[C@H](OC(C)=O)C(=C1C)C2(C)C", "note": "[Cephalomannine, cephalomannine]", "values": [{"measurement": "remission of leukemic tumors", "value": "effective in causing remission of leukemic tumors"}]}
